# Results as given in article PMC12114619, “Nifuroxazide and 4-Hydroxybenzhydrazone Derivatives as New Antiparasitic (Trypanosoma cruzi and Leishmania mexicana) and Anti-Mycobacterium tuberculosis Agents” (Pharmaceutics, 2025).
# Columns and labels:
# [1] = test system: intracellular amastigotes of the L. donovani 9515 strain; parameters: method as in PMID 35732232; settings: read-out: IC50 against intracellular amastigotes of L. donovani 9515; cited from earlier work
# [2] = test system: amastigotes of the L. major IR-173 strain; parameters: method as in PMID 35732232; settings: read-out: IC50 against amastigotes of L. major IR-173; cited from earlier work
# [3] = test system: J774.2 mouse macrophage cells; assay: Cytotoxicity on macrophages (MTT); type: cell-based
# Experimental: (§2) Cytotoxicity was assessed on J774.2 mouse macrophage cells (ATCC® TIB-67, ATCC, Manassas, VA, USA). Cells were cultured in RPMI medium supplemented with 10% SFB, 100 U µg/mL penicillin-100 mg/mL streptomycin, and glutamine (2 mM) at 37 °C and in a 5% CO2 atmosphere. A known concentration of cells (1 × 10^6/mL) was incubated with the compounds at different concentrations (0.78 to 200 µM) for 48 h at 37 °C in a CO2 atmosphere (5%). Wells containing cells treated with 0.2% DMSO were used as a negative control. MTT was employed to evaluate the metabolic activity. Next, the cell viability was calculated (%), and the cytotoxic concentration (CC50) was determined with probit analysis. All samples were evaluated in triplicate in three independent experiments.
# [4] = test system: L. mexicana MNYC/BZ/62/M379 promastigotes; assay: Leishmanicidal activity, L. mexicana promastigotes, M379 strain (MTT); type: cell-based, Leishmania mexicana; settings: 48 h
# Experimental: (§1) For leishmanicidal assays, the reference strain (MNYC/BZ/62/M379) and the isolate (MHOM/MX/2017/UABJO17FCQEPS) of L. mexicana were used. Promastigotes were cultured in RPMI 1640 medium supplemented with 10% FBS, 100 U/mL penicillin-100 […] streptomycin, and glutamine (2 mM). 100 µL parasites (5 × 10^5/mL) were added in a 96-well plate, and 100 µL of appropriate concentrations (0.78 to 200 µM) of each sample dissolved in DMSO and incubated for 48 h at 26 °C. Wells containing promastigotes with DMSO 0.2% were used as a negative control, and the reference drug glucantime was included as the positive control. The 3-(4,5-Dimethylthiazol-2-yl)-2,5-diphenyltetrazolium bromide (MTT) was used to measure metabolic activity. The IC50 values were calculated with the probit statistical tool. All samples were evaluated in triplicate in three independent experiments.
# [5] = test system: L. mexicana MHOM/MX/2017/UABJO17FCQEPS promastigotes; assay: Leishmanicidal activity, L. mexicana promastigotes, FCQEPS isolate (MTT); type: cell-based, Leishmania mexicana; settings: FCQEPS strain, 48 h
# Experimental: as §1
# [6] = Cytotoxicity on macrophages (MTT); type: cell-based, mouse; settings: mouse, Cytotoxicity (CC50) Macrophages J774.2
# Experimental: as §2
# [7] = test system: M. tuberculosis H37Rv (ATCC 27294); assay: Anti-Mycobacterium activity, microplate Alamar Blue Assay (MABA); type: cell-based, Mycobacterium tuberculosis; settings: Mycobacterium tuberculosis, H37Rv strain, minimum concentration achieving 90% inhibition
# Experimental: The reference strain H37Rv (ATCC 27294) of M. tuberculosis was utilized to assess anti-M. tuberculosis activity using the microplate Alamar Blue Assay (MABA), as previously reported. Samples underwent evaluation in triplicate independent experiments. Isoniazid, rifampicin, moxifloxacin, and linezolid were included as reference drugs, and the minimum drug concentration that achieved 90% inhibition was recorded as the minimum inhibitory concentration (MIC).
# [8] = test system: T. cruzi NINOA (MHOM/MX/1994/NINOA) strain epimastigotes; assay: Trypanocidal activity, T. cruzi epimastigotes, NINOA strain (resazurin); type: cell-based, Trypanosoma cruzi; settings: 48 h
# [9] = test system: T. cruzi strain A1 epimastigotes; assay: Trypanocidal activity, T. cruzi epimastigotes, A1 strain (resazurin); type: cell-based, Trypanosoma cruzi; settings: Trypanosoma cruzi, 48 h
compound,measurement,setting,value
O=C(N/N=C/c1ccc([N+](=O)[O-])o1)c1ccc(OS(=O)(=O)c2cccnc2)cc1 [Compound 1l],IC50,[1],3.26 µM
same,IC50,[2],1.26 µM
CC(C)(C)c1ccc(COc2ccc(C(=O)N/N=C/c3ccc([N+](=O)[O-])o3)cc2)cc1 [Compound 2d],IC50,[2],0.19 µM
"CNC[C@H](O)[C@@H](O)[C@H](O)[C@H](O)CO.[O]=[Sb](=[O])[OH] [Glucantime, reference compound]",CC50,"[3]; J774.2 macrophages, 48 h, MTT",> 200 µM
same,IC50,[4],134 ± 3.1 µM
same,IC50,[4]; listed as glucantime,134 µM
same,IC50,[5],125 ± 1.6 µM
same,IC50,[5]; listed as glucantime,> 120 µM
O=C(N/N=C/c1ccc([N+](=O)[O-])cc1)c1ccc(O)cc1 [Nfz-18],CC50 at 48 h,[6],2.45 ± 2.9 µM
same,Cytotoxicity (CC50) Macrophages J774.2,[3],most toxic
same,IC50,[4],> 200 µM
same,IC50,[4]; Leishmania mexicana,> 100 µM
same,IC50,[5]; Leishmania mexicana,57.8 ± 2.6 µM
same,MIC,[7],186 µg/mL
same,IC50,[8],44.6 ± 6.3 µM
same,IC50,[8]; Trypanosoma cruzi,44.5 µM
same,IC50,[9],> 100 µM
